Data reported in ChEMBL document CHEMBL1129670, “Synthesis and structure-activity relationships of N-propyl-N-(4-pyridinyl)-1H-indol-1-amine (besipirdine) and related analogs as potential therapeutic agents for Alzheimer's disease” (J Med Chem, 1996).

Experiments:
[1] = biological target: Muscarinic acetylcholine receptor; assay type: cell membranes, Membrane
Description: Inhibition of [3H]quinuclidinyl benzilate (QNB) binding from rat forebrain membranes in the absence of Zn

[2] = biological target: T1, Adrenergic receptor alpha-1 (Rattus norvegicus, UniProt P15823+P23944+P43140); assay: Inhibitory activity against [3H]WB-4101 binding to Alpha-1 adrenergic receptor in rat whole brain membrane; assay type: cell membranes
T1 sequence (P15823 whole entry): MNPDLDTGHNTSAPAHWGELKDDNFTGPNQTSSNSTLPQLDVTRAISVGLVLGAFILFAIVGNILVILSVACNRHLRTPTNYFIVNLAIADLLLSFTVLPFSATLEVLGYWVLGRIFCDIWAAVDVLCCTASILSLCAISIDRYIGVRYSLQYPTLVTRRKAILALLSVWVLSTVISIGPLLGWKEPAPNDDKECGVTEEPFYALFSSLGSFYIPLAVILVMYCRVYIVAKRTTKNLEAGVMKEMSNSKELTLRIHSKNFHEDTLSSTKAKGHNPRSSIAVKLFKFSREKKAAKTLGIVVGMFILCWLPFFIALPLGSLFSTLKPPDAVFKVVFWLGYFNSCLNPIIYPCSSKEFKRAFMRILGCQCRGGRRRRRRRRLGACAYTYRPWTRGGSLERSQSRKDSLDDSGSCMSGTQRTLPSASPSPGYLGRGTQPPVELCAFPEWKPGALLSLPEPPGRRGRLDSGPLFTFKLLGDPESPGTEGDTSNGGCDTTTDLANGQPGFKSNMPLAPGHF
T1 sequence (P23944 whole entry): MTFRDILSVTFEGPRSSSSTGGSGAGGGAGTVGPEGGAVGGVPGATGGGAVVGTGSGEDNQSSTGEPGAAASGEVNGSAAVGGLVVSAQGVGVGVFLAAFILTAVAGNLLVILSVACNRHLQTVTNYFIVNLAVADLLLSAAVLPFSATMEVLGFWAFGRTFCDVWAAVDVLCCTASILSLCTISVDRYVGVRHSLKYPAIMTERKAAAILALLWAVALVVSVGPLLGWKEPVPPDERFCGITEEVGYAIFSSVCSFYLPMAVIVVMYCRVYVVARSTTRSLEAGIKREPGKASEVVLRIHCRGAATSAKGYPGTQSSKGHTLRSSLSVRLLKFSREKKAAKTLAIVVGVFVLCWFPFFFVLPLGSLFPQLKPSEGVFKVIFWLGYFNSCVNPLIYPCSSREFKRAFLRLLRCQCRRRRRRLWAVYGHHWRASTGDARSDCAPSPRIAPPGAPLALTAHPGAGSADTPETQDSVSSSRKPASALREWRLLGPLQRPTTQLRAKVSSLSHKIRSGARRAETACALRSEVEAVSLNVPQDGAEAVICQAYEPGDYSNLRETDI
T1 sequence (P43140 whole entry): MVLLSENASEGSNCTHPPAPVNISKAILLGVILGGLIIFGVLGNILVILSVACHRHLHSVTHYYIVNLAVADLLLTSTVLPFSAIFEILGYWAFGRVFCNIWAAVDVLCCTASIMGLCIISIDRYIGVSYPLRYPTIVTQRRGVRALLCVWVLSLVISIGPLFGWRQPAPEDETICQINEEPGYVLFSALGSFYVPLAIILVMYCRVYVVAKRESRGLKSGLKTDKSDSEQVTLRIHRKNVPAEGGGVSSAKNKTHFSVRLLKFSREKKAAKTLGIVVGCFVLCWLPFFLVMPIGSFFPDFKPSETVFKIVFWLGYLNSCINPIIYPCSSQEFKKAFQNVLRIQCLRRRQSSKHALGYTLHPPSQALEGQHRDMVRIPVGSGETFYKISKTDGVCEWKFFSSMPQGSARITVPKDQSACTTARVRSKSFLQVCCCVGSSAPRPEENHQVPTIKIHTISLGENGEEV

[3] = species on record: Mus musculus; assay: animal or person
Description: Effective dose against administration in mice

[4] = biological target: T2, Acetylcholinesterase (Rattus norvegicus, UniProt P37136)
T2 sequence (P37136 whole entry): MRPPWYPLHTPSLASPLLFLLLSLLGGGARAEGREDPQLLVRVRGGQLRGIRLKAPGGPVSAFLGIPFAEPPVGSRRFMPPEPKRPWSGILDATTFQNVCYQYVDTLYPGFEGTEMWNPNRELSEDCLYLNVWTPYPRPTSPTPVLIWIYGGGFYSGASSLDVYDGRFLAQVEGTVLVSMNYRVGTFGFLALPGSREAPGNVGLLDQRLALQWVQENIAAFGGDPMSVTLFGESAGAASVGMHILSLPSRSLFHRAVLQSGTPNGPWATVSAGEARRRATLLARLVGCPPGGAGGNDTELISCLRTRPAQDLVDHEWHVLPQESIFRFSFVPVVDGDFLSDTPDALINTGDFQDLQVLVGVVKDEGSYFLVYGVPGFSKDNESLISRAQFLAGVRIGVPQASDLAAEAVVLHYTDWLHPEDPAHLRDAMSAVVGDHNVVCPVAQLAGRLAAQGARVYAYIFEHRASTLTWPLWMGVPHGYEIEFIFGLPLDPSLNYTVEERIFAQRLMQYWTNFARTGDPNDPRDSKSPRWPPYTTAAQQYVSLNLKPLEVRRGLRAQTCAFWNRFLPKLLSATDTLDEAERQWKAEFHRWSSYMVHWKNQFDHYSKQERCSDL
Description: Inhibitory activity against acetylcholinesterase in rat striatal preparation

[5] = biological target: Muscarinic acetylcholine receptor; assay type: cell membranes, Membrane; remark: listed apart in the source
Description: Inhibition of [3H]quinuclidinyl benzilate (QNB) binding from rat forebrain membranes in the presence of Zn

[6] = system: Mus musculus; assay: Antagonistic activity against Scopolamine induced behavioral deficits in mice at dose 0.08 mg/kg sc; assay type: functional; conditions: route subcutaneous
[7] = system: Mus musculus; assay: Antagonistic activity against Scopolamine induced behavioral deficits in mice at dose 0.02 mg/kg sc; assay type: functional; conditions: route subcutaneous

Compound	IC50 [1]	IC50 [2]	ED50 [3]	IC50 [4]	IC50 [5]	Response [6]	Response [7]
CN(c1ccncc1)n1ccc2ccccc21	9 µM	1.2 µM	3.5 mg/kg	> 100 µM	5.1 µM	33%	33%
c1ccc2c(c1)ccn2Nc1ccncc1	40 µM	0.51 µM	3 mg/kg	> 100 µM	16 µM	20%	27%
CCCN(c1ccncc1)n1ccc2ccccc21 [BESIPIRDINE]	3 µM	10 µM	3.1 mg/kg	> 100 µM	0.94 µM	33%	24%
